Data published in US11078202B2, “β-lactamase inhibitor and use thereof” (priority 2018, dated 2021).
Structures can show the parent of a compound that is named as a salt.

How the values were obtained:
Format in all cases: cell-based
[1] = system: Klebsiella pneumoniae XNWB 0006; assay: MIC assay of test compounds combined with ceftazidime (8 μg/mL); settings: ceftazidime 8 μg/mL fixed
Procedure: (§1) The bacterial strains used for the minimum inhibitory concentration (MIC) test were frozen in a −80° C. ULT freezer and thawed 2 days before use. A small amount of frozen bacterial strains were scraped using a sterile inoculating loop, streaked onto a TSA solid culture dish for inoculation, and then cultured for 20-24 h at 35±2° C. in a normal atmospheric environment. 5-10 colonies with similar morphology were picked from the culture dish using a sterile inoculating loop and then re-streaked onto a suitable solid culture dish. Then the dish was placed into a normal incubator for culture for 20-24 h at 35±2° C. 5-10 single bacterial colonies were picked from the solid culture dish, resuspended in 500 μL of 0.9% NaCl, and adjusted to an OD600 of 0.1-0.15 with a spectrophotometer. The bacteria were then diluted 300-fold with 1.1×CAMHB. […] Dilution of test compounds: […] 2 μL of each compound in the dilution master plate of the test compounds was transferred to the corresponding well of the assay plates. In the mean time, 2 μL of 100% DMSO was transferred to the compound-free wells (GC and SC wells). (1) 8 μL of imipenem in the additive plate of imipenem was transferred to the corresponding wells of the assay plates; (2) 8 μL of ceftazidime in the additive plate of ceftazidime was transferred to the corresponding wells of the assay plates; (3) 8 μL of ampicillin in the additive plate of ampicillin was transferred to the corresponding wells of the assay plates. 90 μL of corresponding bacterial inocula were added to wells (except for SC wells) of the assay plates. After addition, the 6 assay plates were covered by sterile covers. The mixtures in the assay plates were centrifuged by a centrifuge at 1000 rpm for 30 s, and mixed uniformly by oscillating with a microplate oscillator at 800 rpm for 1 min, and then cultured in a common incubator for 16-20 h at 35±2° C. The minimum inhibitory concentration of each compound was recorded by reference to guidelines from the Clinical and Laboratory Standards Institute. […] The effect of the test compounds in combination with imipenem, ceftazidime, and ampicillin was also tested. […] The bacterial inocula in the assay plates were resuscitated from TSA and diluted in CAMHB, while growth controls (GC wells) and sterile controls (SC wells) were set up in the assay plates. The minimum inhibitory concentration of each compound combination against different bacteria was observed and recorded after the assay plates were incubated in a common incubator at 35±2° C. for 16-20 h, and the results are shown in Tables 1-3.

[2] = system: Klebsiella pneumoniae XNWB 0004; assay: as above; settings: ceftazidime 8 μg/mL fixed
Procedure: as §1

[3] = system: Klebsiella pneumoniae XNWB 0003; assay: as above; settings: ceftazidime 8 μg/mL fixed
Procedure: as §1

[4] = system: Klebsiella pneumoniae XNWB 0001; assay: as above; settings: ceftazidime 8 μg/mL fixed
Procedure: as §1

[5] = system: Pseudomonas aeruginosa XNWB 0008; assay: as above; settings: ceftazidime 8 μg/mL fixed
Procedure: as §1

[6] = system: Klebsiella pneumoniae XNWB 0002; assay: as above; settings: ceftazidime 8 μg/mL fixed
Procedure: as §1

[7] = system: Klebsiella pneumoniae XNWB 0005; assay: as above; settings: ceftazidime 8 μg/mL fixed
Procedure: as §1

[8] = system: Acinetobacter baumannii XNWB 0007; assay: as above; settings: ceftazidime 8 μg/mL fixed
Procedure: as §1

[9] = system: Klebsiella pneumoniae XNWB 0006; assay: MIC assay of test compounds combined with imipenem (4 μg/mL); settings: imipenem 4 μg/mL fixed
Procedure: as §1

[10] = system: Klebsiella pneumoniae XNWB 0004; assay: as above; settings: imipenem 4 μg/mL fixed
Procedure: as §1

[11] = system: Klebsiella pneumoniae XNWB 0003; assay: as above; settings: imipenem 4 μg/mL fixed
Procedure: as §1

[12] = system: Klebsiella pneumoniae XNWB 0001; assay: as above; settings: imipenem 4 μg/mL fixed
Procedure: as §1

[13] = system: Pseudomonas aeruginosa XNWB 0008; assay: as above; settings: imipenem 4 μg/mL fixed
Procedure: as §1

[14] = system: Klebsiella pneumoniae XNWB 0002; assay: as above; settings: imipenem 4 μg/mL fixed
Procedure: as §1

[15] = system: Klebsiella pneumoniae XNWB 0005; assay: as above; settings: imipenem 4 μg/mL fixed
Procedure: as §1

[16] = system: Acinetobacter baumannii XNWB 0007; assay: as above; settings: imipenem 4 μg/mL fixed
Procedure: as §1

Row | SMILES | The minimum concentration of test compounds combined with ceftazidime (8 μg/mL) for bacteriostasis [1] | The minimum concentration of test compounds combined with ceftazidime (8 μg/mL) for bacteriostasis [2] | The minimum concentration of test compounds combined with ceftazidime (8 μg/mL) for bacteriostasis [3] | The minimum concentration of test compounds combined with ceftazidime (8 μg/mL) for bacteriostasis [4] | The minimum concentration of test compounds combined with ceftazidime (8 μg/mL) for bacteriostasis [5] | The minimum concentration of test compounds combined with ceftazidime (8 μg/mL) for bacteriostasis [6] | The minimum concentration of test compounds combined with ceftazidime (8 μg/mL) for bacteriostasis [7] | The minimum concentration of test compounds combined with ceftazidime (8 μg/mL) for bacteriostasis [8] | The minimum concentration of test compounds combined with imipenem (4 μg/mL) for bacteriostasis [9] | The minimum concentration of test compounds combined with imipenem (4 μg/mL) for bacteriostasis [10] | The minimum concentration of test compounds combined with imipenem (4 μg/mL) for bacteriostasis [11] | The minimum concentration of test compounds combined with imipenem (4 μg/mL) for bacteriostasis [12] | The minimum concentration of test compounds combined with imipenem (4 μg/mL) for bacteriostasis [13] | The minimum concentration of test compounds combined with imipenem (4 μg/mL) for bacteriostasis [14] | The minimum concentration of test compounds combined with imipenem (4 μg/mL) for bacteriostasis [15] | The minimum concentration of test compounds combined with imipenem (4 μg/mL) for bacteriostasis [16]
1 | O=C1N2C[C@H](N1OS(=O)(=O)O)C1(CC1)C[C@H]2c1cc(C2CCCNC2)on1 (stereo partly drawn) [Example 44, (1R,4S)-6-oxo-4-(5-(piperidin-3-yl)isoxazol-3-yl)-5,7-diazaspiro[bicyclo[3.2.1]octane-2,1′-cyclopropan]-7-yl sulfate] | A (A: <8 μg/mL) | B (B: 8-16 μg/mL) | A (A: <8 μg/mL) | A (A: <8 μg/mL) | B (B: 8-16 μg/mL) | A (A: <8 μg/mL) | A (A: <8 μg/mL) | C (C: 16-128 μg/mL) | A (A: <8 μg/mL) | A (A: <8 μg/mL) | A (A: <8 μg/mL) | A (A: <8 μg/mL) | A (A: <8 μg/mL) | A (A: <8 μg/mL) | A (A: <8 μg/mL) | C (C: 16-128 μg/mL)
2 | N=C(N)NC[C@@H](O)c1cc([C@@H]2CC3(CC3)[C@@H]3CN2C(=O)N3OS(=O)(=O)O)no1 [Example 40, (1R,4S)-4-(5-((R)-2-guanidyl-1-hydroxyethyl)isoxazol-3-yl)-6-oxo-5,7-diazaspiro [bicyclo[3.2.1]octane-2,1′-cyclopropan]-7-yl sulfate] | A (A: <8 μg/mL) | A (A: <8 μg/mL) | A (A: <8 μg/mL) | A (A: <8 μg/mL) | B (B: 8-16 μg/mL) | A (A: <8 μg/mL) | A (A: <8 μg/mL) | C (C: 16-128 μg/mL) | A (A: <8 μg/mL) | A (A: <8 μg/mL) | A (A: <8 μg/mL) | A (A: <8 μg/mL) | A (A: <8 μg/mL) | A (A: <8 μg/mL) | A (A: <8 μg/mL) | C (C: 16-128 μg/mL)
3 | NC1CC(c2cc([C@@H]3CC4(CC4)[C@@H]4CN3C(=O)N4OS(=O)(=O)O)no2)C1 (single isomer, unassigned) [Example 52] | A (A: <8 μg/mL) | B (B: 8-16 μg/mL) | B (B: 8-16 μg/mL) | A (A: <8 μg/mL) | C (C: 16-128 μg/mL) | A (A: <8 μg/mL) | B (B: 8-16 μg/mL) | C (C: 16-128 μg/mL) | A (A: <8 μg/mL) | A (A: <8 μg/mL) | A (A: <8 μg/mL) | A (A: <8 μg/mL) | A (A: <8 μg/mL) | A (A: <8 μg/mL) | A (A: <8 μg/mL) | C (C: 16-128 μg/mL)
4 | O=C(NC1CCNCC1)[C@@H]1CC[C@@H]2CN1C(=O)N2OS(=O)(=O)O [Relebactam, reference compound] | A (A: <8 μg/mL) | A (A: <8 μg/mL) | A (A: <8 μg/mL) | A (A: <8 μg/mL) | A (A: <8 μg/mL) | A (A: <8 μg/mL) | A (A: <8 μg/mL) | C (C: 16-128 μg/mL) | A (A: <8 μg/mL) | A (A: <8 μg/mL) | A (A: <8 μg/mL) | A (A: <8 μg/mL) | A (A: <8 μg/mL) | A (A: <8 μg/mL) | A (A: <8 μg/mL) | C (C: 16-128 μg/mL)
